Measurements taken from PMC7163137, “The Pyrimidine Analog FNC Potently Inhibits the Replication of Multiple Enteroviruses” (Journal of Virology, 2020).
Read-outs that look alike come from different tables or passages of the source.

Legend:
[1] = test system: EV71; assay: Anti-EV71 activity in infected RD cells (Western blot, RT-qPCR, virus titer)
[2] = target: T1, EV71 3D^pol (Human enterovirus 71, UniProt Q66478); assay: Fluorescence-based activity assay for EV71 3Dpol; assay type: biochemical; conditions: poly(A)/UTP, SYTO 9, 30°C
T1 construct: EV71 3D^pol was cloned into the pET28a expression vector with a His tag at the N terminus; His tag (N); made in house; host or cells: E. coli BL21-derived cells
Description: (§1) EV71 3D^pol was cloned into the pET28a expression vector with a His tag at the N terminus and expressed in E. coli BL21-derived cells. The 3D^pol protein was purified by Ni-column affinity chromatography, and a gel filtration column was connected to an ÄKTA system (General Electric Company, CT, USA). The purity of the resulting 3D^pol protein was determined through SDS-PAGE analysis.
We followed the novel fluorescence-based method for the detection of polymerase activity of EV71 3D^pol ([52]). Reactions were performed in individual wells of black 96-well flat-bottom plates. The standard reaction contained 50 mM Tris-HCl (pH 7.5), 2.5 mM MnCl2, 100 μM UTP, 40 μg/ml poly(A), 0.1 mg/ml bovine serum albumin (BSA), and 0.25 μM SYTO 9. Different concentrations of FNC were added to the reaction mixtures. The assay was initiated by the addition of EV71 3D^pol, and the fluorescence was recorded at 30°C.

[3] = test system: CVB3; assay: Anti-CVB3 activity in infected RD cells (RT-qPCR); conditions: Enterovirus B, read-out: EC50 for CVB3
[4] = test system: CA16; assay: Anti-CA16 activity in infected RD cells (RT-qPCR); conditions: Enterovirus A, read-out: EC50 for CA16
[5] = test system: deoxycytidine kinase; set-up: method as in PMID 18003608; conditions: substrate for deoxycytidine kinase ref 32; cited from earlier work
[6] = test system: EV71, CA16, CA6, CVB3, and EVD68; assay: Antiviral activity against a variety of enteroviruses in RD cells
[7] = test system: RD cells; assay: Cytotoxicity, CCK-8 cell viability assay in RD cells; assay type: cell-based, human; conditions: 48 h
Description: (§2) The cells were treated with various concentrations of compounds dissolved in DMSO for 48 h, and then cell viability was assayed using a Cell Counting kit‑8 (CCK-8; Beyotime, Shanghai, China). In brief, 10 μl of the CCK‑8 solution was added, and the cells were incubated for an additional 2 h. Medium without cells was used as a blank control. Absorbance at a wavelength of 450 nm was measured using a microplate reader. Cell viability was determined as a percentage of that of the control. All cell proliferation assays were performed in triplicate and repeated in three independent experiments.

[8] = as above; assay type: cell-based, human; conditions: human
Description: as §2

[9] = test system: CA16 CC045; assay: Lethal CA16 challenge, neonatal mouse model; assay type: in vivo, ICR neonatal mice
Description: (§3) One-day-old specific pathogen-free (SPF) ICR neonatal mice (Beijing Institute of Radiation Medicine) were used to establish the animal model of viral infection. All welfare and experimental procedures were carried out strictly in accordance with the Guide for the Care and Use of Laboratory Animals and the related ethical regulations of the Beijing Institute of Radiation Medicine. All efforts were made to minimize animal suffering. The neonatal mice were randomly divided into five groups, and each group contained three litters (n = 8 to ∼10 per litter). One group was inoculated intracerebrally with DMEM (10 μl/mouse) and after 1 h injected intraperitoneally with DMSO (control group). Two groups were inoculated intracerebrally with EV71 CC063 (10^5.5 CCID50 ml^−1) and after 1 h injected intraperitoneally with FNC or DMSO. Two groups were inoculated intracerebrally with CA16 CC045 (10^2.7 CCID50 ml^−1) and after 1 h injected intraperitoneally with FNC or DMSO. The survival rates and mean clinical symptoms were monitored daily for 15 days postinfection. The mean clinical symptoms were scored as follows: 0, healthy; 1, lethargy or weakness; 2, wasting; 3, limb tremors; 4, paralysis in hind limb; and 5, moribund or dead. The control mice were healthy throughout the experiments.
After intracerebral inoculation with EV71 CC063 viruses, CA16 CC045 viruses, or culture medium, three experimental neonatal mice and three control neonatal mice were subjected to viral load detection. The EV71 infection and control groups were collected on day 9 postinfection, and the CA16 infection and control groups were collected on day 14 postinfection. All tissues, including brain, lung, spine skeletal muscle, and hind-limb muscle, were weighed individually, homogenized in sterile PBS, disrupted by freeze-thawing, and centrifuged. The samples were treated with TRIzol (Invitrogen) for RNA extraction and viral load determination by real-time PCR, as described previously ([42]). Viral loads were determined by real-time PCR and expressed as log10 copies/mg tissue. […]

[10] = test system: RSV; assay: Anti-RSV activity in HEK293T cells (Western blot, RT-qPCR); assay type: cell-based, respiratory syncytial virus; conditions: MOI 0.5, 48 h, safe drug concentrations
[11] = test system: EVD68; assay: Anti-EVD68 activity in infected RD cells (RT-qPCR); conditions: Enterovirus D, read-out: EC50 for EVD68
[12] = test system: HEK293T cells; assay: Cytotoxicity, CCK-8 cell viability assay in HEK293T cells; assay type: cell-based; conditions: 48 h
Description: as §2

[13] = test system: EV71 CC063; assay: Lethal EV71 challenge, neonatal mouse model; assay type: in vivo, ICR neonatal mice
Description: as §3
After intracerebral inoculation with EV71 CC063 viruses, CA16 CC045 viruses, or culture medium, three experimental neonatal mice and three control neonatal mice were subjected to viral load detection. The EV71 infection and control groups were collected on day 9 postinfection, and the CA16 infection and control groups were collected on day 14 postinfection. All tissues, including brain, lung, spine skeletal muscle, and hind-limb muscle, were weighed individually, homogenized in sterile PBS, disrupted by freeze-thawing, and centrifuged. The samples were treated with TRIzol (Invitrogen) for RNA extraction and viral load determination by real-time PCR, as described previously ([42]). Viral loads were determined by real-time PCR and expressed as log10 copies/mg tissue.
A total of 15 mice were sampled, as follows: three normal mice from the mock-infected group (the clinical score of grade 0), three mice from the EV71-infected and DMSO-treated group (the clinical score of grade 4), three mice from the CA16-infected and DMSO-treated group (the clinical score of grade 3), three mice from the EV71-infected and FNC-treated group (the clinical score of grade 3), and three mice from the CA16-infected and FNC-treated group (the clinical score of grade 1). After the mice were anesthetized, lung, brain, spine skeletal muscle, and hind-limb muscle tissues were harvested and immersion fixed with 10% formaldehyde solution for 5 days. […]

[14] = test system: CA6; assay: Anti-CA6 activity in infected RD cells (RT-qPCR); conditions: read-out: EC50 for CA6
[15] = target: T1, EV71 3D^pol; assay: Isothermal titration calorimetry with EV71 3Dpol; assay type: binding
Description: as §1
ITC experiments were performed by using an ITC200 instrument (MicroCal, Inc., Northampton, MA, USA). The concentration of 3D^pol was 100 μM. FNC was diluted with buffer (pH 7.5, 25 mM HEPES, 100 mM NaCl) to yield a solution of 1.0 mM. The sample cell was filled with 3D^pol protein solution, and FNC was added by syringe at 25°C. The stirring rate was 750 r/min. All data were analyzed using the Origin 7.0 software.

[16] = test system: MDCK cells; assay: Cytotoxicity, CCK-8 cell viability assay in MDCK cells; assay type: cell-based; conditions: 48 h
Description: as §2

[17] = test system: influenza A(H1N1) virus; assay: Anti-influenza A(H1N1) activity in MDCK cells (Western blot, RT-qPCR); assay type: cell-based
[18] = test system: EV71; set-up: method as in PMID 18279075; conditions: RD cells, virus-induced CPE assay ref 27; read-out: 50% effective concentration (EC50) against EV71; cited from earlier work
[19] = vs DMSO treatment group, P < 0.05

T1 sequence (Q66478 1732-2193): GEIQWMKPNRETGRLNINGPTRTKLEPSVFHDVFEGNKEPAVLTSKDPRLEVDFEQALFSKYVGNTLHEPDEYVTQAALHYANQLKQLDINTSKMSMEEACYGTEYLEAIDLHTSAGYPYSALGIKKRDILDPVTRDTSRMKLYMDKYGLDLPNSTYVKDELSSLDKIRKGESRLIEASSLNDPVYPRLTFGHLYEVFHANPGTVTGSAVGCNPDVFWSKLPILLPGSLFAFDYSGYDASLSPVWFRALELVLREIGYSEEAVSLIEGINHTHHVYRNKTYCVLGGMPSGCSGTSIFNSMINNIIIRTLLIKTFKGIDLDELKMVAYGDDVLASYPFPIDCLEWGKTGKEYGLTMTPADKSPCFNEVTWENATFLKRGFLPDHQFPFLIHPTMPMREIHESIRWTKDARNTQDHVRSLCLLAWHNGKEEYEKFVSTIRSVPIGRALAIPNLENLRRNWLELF

SMILES: [N-]=[N+]=N[C@]1(CO)O[C@@H](n2ccc(N)nc2=O)[C@@H](F)[C@@H]1O [FNC, 2'-deoxy-2'-β-fluoro-4'-azidocytidine]
- virus titers in supernatants (plaque assay, CPE-based TCID50) ([1]; EV71-infected RD cells, increasing doses): continuously decreasing virus titers
- EC50 ([1]; Enterovirus A, EV71, RD, 48 h, read-out: EC50 against EV71, RD cells, from reduced viral RNA level (RT-qPCR), 48 h): 16.9 nM
- EV71 VP1 protein by Western blot ([1]; RD cells, 100 nM, 48 h postinfection): could not be detected
- anti-EV71 activity, intracellular VP1 protein by Western blot ([1]; RD cells, MOI 0.1, 48 h treatment, 1 μM): obvious anti-EV71 activity
- RNA synthesis activity of EV71 3Dpol [2]: inhibited the RNA synthesis activity of EV71 3D^pol in a dose-dependent manner
- EC50 [3]: 33.8 nM
- EC50 [4]: 52.1 nM
- phosphorylation efficiency relative to deoxycytidine [5]: up to 3 fold
- virions in the supernatant and viral titers ([6]; CA16, CA6, CVB3, EVD68, RD cells): suppressed by FNC in a dose-dependent manner
- positive- and negative-strand EV RNA synthesis (RT-qPCR) ([6]; EV71, CA16, CA6, CVB3, EVD68, RD cells, 48 h): inhibited both positive- and negative-strand EV RNA synthesis
- selectivity indices (CC50/EC50) against EVs ([6]; RD cells): good selectivity indices
- EC50 ([6]; RD, read-out: EC50 against a variety of enteroviruses): 1.55 to 52.1 nM
- suppression of EVs (VP1 protein expression, viral RNA levels, viral titers) ([6]; in vitro cell model): efficiently suppressed
- concentration that did not significantly affect cell viability (safe dose) [7]: 1000 nM
- CC50 at 48 h [8]: 3240 nM
- tissue damage, H&E histology ([9]; CA16-infected brain, spinal skeletal muscle, hind-limb muscle): significantly reduced the damage
- mortality ([9]; CA16 CC045 intracerebral, 1-day-old mice, 1 mg/kg i.p. days 1, 3, 6, 9, 12, 15 days): 0%
- CA16 viral load in all detected tissues (RT-qPCR) ([9]; brain, lung, spine skeletal muscle, hind-limb muscle, vs DMSO, P < 0.05): completely decreased
- effect on RSV replication (viral proteins, RNA) [10]: no inhibitory effect
- EC50 [11]: 1.55 nM
- safe dose [12]: 100 µM
- tissue damage, H&E histology ([13]; EV71-infected spinal skeletal muscle and hind-limb muscle): significantly reduced the damage
- mortality ([13]; EV71 CC063 intracerebral, 1-day-old mice, 1 mg/kg i.p. days 1, 3, 6, 9, 12, 15 days): 20%
- EV71 viral load in spine skeletal muscle and hind-limb muscle (RT-qPCR) [13, 19]: completely decreased
- EV71 viral loads in brain and lung (RT-qPCR) [13, 19]: moderately reduced
- EC50 [14]: 13.4 nM
- Kd [15]: 6000 nM
- safe dose [16]: 10 µM
- effect on H1N1 replication (viral proteins, RNA) [17]: no inhibitory effect

SMILES: NC(=O)c1ncn([C@@H]2O[C@H](CO)[C@@H](O)[C@H]2O)n1 [ribavirin]
- EC50 [18]: 266000 nM
- interaction with EV71 3Dpol by ITC ([15]; ITC, 25°C, 3 mM ribavirin into 100 μM 3Dpol): failed to observe the interaction
